Data taken from patent US10940188B2, “Compounds and methods for treatment and prevention of Flavivirus infection” (priority 2016, dated 2021).
“Also recorded” adds a separate entry of the source.

Assays:
[1] = tested on: liver injury in chronic Hepatitis C patients; conditions: chronic HCV patients; cited from earlier work
[2] = tested on: activated caspases; conditions: in vitro; cited from earlier work
[3] = tested on: liver injury and fibrosis; conditions: murine NASH model; cited from earlier work
[4] = tested on: hNPCs infected with ZIKV PRVABC59; test: hNPC proliferation after ZIKV infection (EdU); format: cell-based, human; conditions: PHA-690509 1 μM, Seliciclib 5 μM
Experimental: (§1) FIGS. 17A-17C. Analysis of potential toxicity of CDKis on human astrocyte viability and hNPC proliferation. Human iPSC-derived astrocytes (BJ line) were treated with each indicated compound (cpd) for 25 hours prior to cell viability analysis as measured in relative luciferase units for ATP production. Values represent mean+s.d. (n=3 cultures; ***P<0.001; **P<0.01; One-way ANOVA for comparison with the DMSO treatment). RLU: relative luminescence units. hNPCs were treated with saline, PHA-690509 (PHA, 1 μM) or Seliciclib (5 μM), 1 hour prior to ZIKV PRVABC59 infection (MOI=0.08). At 72 hours post infection, EdU (10 μM) was added to hNPCs and cells were cultured for additional 4 hours prior to fixation and staining for EdU and DAPI. Values represent mean+s.e.m. (n=3 cultures; ***P<0.001; One-way ANOVA for comparison with the mock treatment). Day 20 forebrain-specific brain organoids were treated with PHA-690509 (1 μM) or Seliciclib (5 μM) for 3 days and hNPC proliferation was evaluated by phospho-Histone 3 (PH3) expression within the ventricular zone. Values represent mean+s.e.m. (n=8 organoids; P>0.05; One-way ANOVA for comparison with the mock treatment).

[5] = tested on: forebrain-specific brain organoids; test: hNPC proliferation in forebrain organoids (phospho-Histone 3), compound alone; format: cell-based, human; conditions: 3 days
Experimental: as §1

Compound	liver injury and tolerability in clinical trials [1]	activity against activated caspases [2]	liver injury and fibrosis [3]	rescue of ZIKV-induced reduction of hNPC proliferation [4]	effect of the treatment itself on hNPC proliferation [5]
C[C@H](NC(=O)C(=O)Nc1ccccc1C(C)(C)C)C(=O)N[C@@H](CC(=O)O)C(=O)COc1c(F)c(F)cc(F)c1F [Emricasan]	reduced liver injury and was tolerated over 12 weeks; also recorded: well tolerated in human trials without significant adverse events	sub- to nano-molar activity	reduces liver injury and fibrosis	–	–
CC(=O)Nc1ccc([C@H](C)C(=O)Nc2ncc(C(C)C)s2)cc1 [PHA-690509]	–	–	–	partially rescued ZIKV-induced reduction of hNPC proliferation	minimal effect on hNPC proliferation in brain organoids
